The values below come from patent US10125356B2, “Enzymatic methods and enzymes” (Givaudan SA, priority 2007, dated 2018).

The subject of experiment [1] is Ax20 peptidase (SEQ ID NO: 2). Put plainly: Release of 3-sulfanyl-3-methyl-hexanol from cys-gly-conjugate by clear lysate of recombinant E. coli expressing Ax20 peptidase, monobromobimane fluorescence test. The class given is biochemical, Corynebacterium sp. Ax20. Particulars: conjugate 1 mM. The procedure: (§1) Samples of each fraction were incubated both with the β-lyase and with the cys-gly-conjugate at the same time, and the release of 3-sulfanyl-3-methyl-hexanol was determined by a fluorescence test specific for free SH groups: To this end the enzyme reaction was stopped by adding 0.5 volumes of NaCO3-buffer (0.1 M, pH 8.8) containing 0.5 mM monobromobimane, thus derivatising the free thiol-group. Fluorescence was then measured on a Flex-station (Molecular devices, Sunnyvale, Calif., USA) with an excitation wavelength of 385 nm and an emission wavelength of 480 nm.
(§2) 50 ml of recombinant E. coli culture formed as described in example 3 and 4 was harvested, resuspended in a final volume of 3 ml of phosphate buffer and then disrupted with ultrasonication. The soluble extract was cleared by centrifugation. Different dilutions of the resulting extract were incubated with the cys-gly-conjugate (1 mM) and in presence as well as in absence of an excess of the β-lyase. As a negative control, clear cell lysate from E. coli transformed with an empty vector, and cell lysates with the cys-gly-conjugate but no β-lyase were used.

For experiment [2], the system named is K411 peptidase (SEQ ID NO: 4). Description: Release of 3-sulfanyl-3-methyl-hexanol from cys-gly-conjugate by clear lysate of recombinant E. coli expressing K411 peptidase, monobromobimane fluorescence test. The class given is biochemical, Corynebacterium jeikeium K411. Particulars: conjugate 1 mM. The procedure: as §1, §2
Another experiment deals with Ax20 peptidase. Put plainly: Substrate specificity of recombinant Ax20 peptidase, cleavage by thin layer chromatography. The class given is biochemical, Corynebacterium sp. Ax20. Conditions: 1 mM solution, 0.1 or 1 μg/ml peptidase, incubation 1 h. The procedure:
The recombinant Ax20 peptidase formed as described in example 3 (affinity column purified tagged enzyme) was incubated with different compounds, in particular potential candidate dipeptide substrates, to characterize the substrate specificity and to identify substrates useful for screening assays (for example to screen for modulators including inhibitors).
The table below lists the tested compounds (mostly dipeptides indicated by their short names, e.g. ala-gly for an alanine-glycine dipeptide) and indicates whether they are cleaved by the peptidase. Z indicates a benzyloxy-carbonyl protecting group at the N-terminus of the peptide.
Cleavage was determined by thin layer chromatography.
Amounts are qualitative with (+++) indicating >80% cleavage of a 1 mM solution by 0.1 μg/ml peptidase during an incubation for 1 h; (++) indicates complete cleavage of a 1 mM solution by 1 μg/ml peptidase during an incubation for 1 h and (+) indicates partial cleavage (20-80%) of a 1 mM solution by 1 μg/ml peptidase during an incubation for 1 h and (−) indicating the absence of any cleavage.

For the next experiment, the target named is T1, β-lyase (Corynebacterium striatum, UniProt Q64HC5).
T1 construct: made in house
Description: Cleavage of conjugates by β-lyase, release of 3-sulfanyl-3-methyl-hexanol by gas chromatography. It is filed as biochemical, Corynebacterium sp. Ax20. Conditions: conjugate 1 mM incubated with β-lyase. The procedure: The test compounds (Cys-conjugate (1 mM) or Cys-Gly-conjugate (1 mM)) were incubated with β-lyase.
(§3) Cleavage was measured by gas chromatography to determine the release of 3-sulfanyl-3-methyl-hexanol in mM.

A further experiment concerns C. sp. Ax 20 extract. Put plainly: Cleavage of conjugates by Corynebacterium sp. Ax20 cellular extract, release of 3-sulfanyl-3-methyl-hexanol by gas chromatography. It is filed as biochemical. Particulars: conjugate 1 mM incubated with C. sp. Ax 20 extract for 24 h. On the procedure: The test compounds (cys-conjugate (1 mM) or cys-gly-conjugate (1 mM)) were incubated also with the wild-type strain Corynebacterium sp. Ax20 extract naturally containing the peptidase of SEQ ID NO:2. Corynebacterium sp. Ax20 cellular extract was prepared as described in example 1. The resulting extract was diluted to the same volume as the original culture has had when adjusted to an optical density of OD 4. The substrate was incubated with the extract for 24 h.
as §3

T1 sequence (Q64HC5 whole entry): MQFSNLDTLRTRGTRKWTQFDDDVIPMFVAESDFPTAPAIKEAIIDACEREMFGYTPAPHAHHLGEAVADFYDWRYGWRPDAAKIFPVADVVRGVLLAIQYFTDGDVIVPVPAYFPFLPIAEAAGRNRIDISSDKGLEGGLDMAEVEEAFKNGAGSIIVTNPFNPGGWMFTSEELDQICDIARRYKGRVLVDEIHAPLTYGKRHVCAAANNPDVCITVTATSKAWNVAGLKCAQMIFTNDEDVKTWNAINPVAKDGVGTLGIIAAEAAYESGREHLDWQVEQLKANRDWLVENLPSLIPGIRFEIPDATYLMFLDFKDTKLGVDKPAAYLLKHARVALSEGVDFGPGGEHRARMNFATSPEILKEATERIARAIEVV

For `CCCC(C)(CCO)SC[C@H](N)C(=O)NCC(=O)O` (stereo in doubt) [Cys-gly-conjugate, (1-(2-hydroxyethyl)-1-methylbutyl)-L-cysteinyl-glycine], the “release of 3-sulfanyl-3-methyl-hexanol from the Cys-Gly-conjugate” value (shortened to “release … from the Cys-Gly-conjugate”) in experiment [1] (Ax20 peptidase + β-lyase, clear cell lysate diluted 10 fold) is on record as 1.00 mM; in experiment [1] (Ax20 peptidase + β-lyase, clear cell lysate diluted 100 fold) it was 0.92 mM; in experiment [1] (Ax20 peptidase + β-lyase, clear cell lysate diluted 1000 fold), 0.46 mM; in experiment [1] (Ax20 peptidase w/o β-lyase, clear cell lysate diluted 10 fold) it was 0.10 mM; in experiment [1] (Ax20 peptidase w/o β-lyase, clear cell lysate diluted 100 fold) it was less than 0.01 mM; in experiment [1] (Ax20 peptidase w/o β-lyase, clear cell lysate diluted 1000 fold), less than 0.01 mM. For the same molecule, the “release … from the Cys-Gly-conjugate” value came to 0.94 mM in experiment [1] (Ax20 peptidase with histidine tag + β-lyase, clear cell lysate diluted 10 fold); 0.88 mM in experiment [1] (Ax20 peptidase with histidine tag + β-lyase, clear cell lysate diluted 100 fold); 0.36 mM in experiment [1] (Ax20 peptidase with histidine tag + β-lyase, clear cell lysate diluted 1000 fold); 0.55 mM in experiment [2] (K411 peptidase + β-lyase, clear cell lysate diluted 10 fold); 0.19 mM in experiment [2] (K411 peptidase + β-lyase, clear cell lysate diluted 100 fold); 0.03 mM in experiment [2] (K411 peptidase + β-lyase, clear cell lysate diluted 1000 fold). Further, the “release … from the Cys-Gly-conjugate” value in experiment [2] (K411 peptidase w/o β-lyase, clear cell lysate diluted 10 fold) is 0.10 mM; in experiment [2] (K411 peptidase w/o β-lyase, clear cell lysate diluted 100 fold), less than 0.01 mM; in experiment [2] (K411 peptidase w/o β-lyase, clear cell lysate diluted 1000 fold), less than 0.01 mM. The Cleavage result with Ax20 peptidase is listed as “+++ ((+++) indicating >80% cleavage of a 1 mM solution by 0.1 μg/ml peptidase during an incubation for 1 h)”. Besides, the entries for the “release of 3-sulfanyl-3-methyl-hexanol from the conjugate” value at β-lyase and in the experiment on C. sp. Ax 20 extract were less than 0.03 mM and 0.21 mM, respectively.
